Organism: Bos taurus
Test: Displacement of radioiodinated Man31-bovine serum albumin from biotin-tagged bovine mincle CRD after 2 hr by scintillation counting analysis relative to alpha,alpha-trehalose

- Ratio Ki: 290
SMILES: Cc1cc(O)cc(O)c1C(=O)OC[C@H]1O[C@H](O[C@H]2O[C@H](COC(=O)c3c(C)cc(O)cc3O)[C@@H](O)[C@H](O)[C@H]2O)[C@H](O)[C@@H](O)[C@@H]1O

From ChEMBL document CHEMBL3739410, “The natural product brartemicin is a high affinity ligand for the carbohydrate-recognition domain of the macrophage receptor mincle” (Medchemcomm, 2015)
